In ChEMBL document CHEMBL3045239, “Synthesis and antimicrobial evaluation of novel benzo[b]thiophenes comprising -lactam nucleus” (2012):

Assays:
Format in all cases: functional
[1] = system: Escherichia coli; assay: Antimicrobial activity against Escherichia coli at 1 mg/ml after 24 hr by agar well diffusion method; conditions: read-out: DIZ
[2] = system: Candida albicans; assay: Antimicrobial activity against Candida albicans at 200 ug/ml after 7 days by agar plate method; conditions: 168 h
[3] = system: Staphylococcus aureus; assay: Antimicrobial activity against Staphylococcus aureus at 1 mg/ml after 24 hr by agar well diffusion method; conditions: read-out: DIZ
[4] = system: Trichophyton longifusum; assay: Antimicrobial activity against Trichophyton longifusum at 200 ug/ml after 7 days by agar plate method; conditions: 168 h
[5] = system: Bacillus subtilis; assay: Antimicrobial activity against Bacillus subtilis at 1 mg/ml after 24 hr by agar well diffusion method; conditions: read-out: DIZ
[6] = system: Micrococcus luteus; assay: Antimicrobial activity against Micrococcus luteus at 1 mg/ml after 24 hr by agar well diffusion method; conditions: read-out: DIZ
[7] = system: Fusarium solani; assay: Antimicrobial activity against Fusarium solani at 200 ug/ml after 7 days by agar plate method; conditions: 168 h
[8] = system: Pseudomonas aeruginosa; assay: Antimicrobial activity against Pseudomonas aeruginosa at 1 mg/ml after 24 hr by agar well diffusion method; conditions: read-out: DIZ
[9] = system: Microsporum canis; assay: Antimicrobial activity against Arthroderma otae at 200 ug/ml after 7 days by agar plate method; conditions: 168 h

## Cc1nn(-c2ccccc2)c(Cl)c1/C=C/C1=Cc2c(sc(N3C(=O)[C@@H](Oc4ccc(Cl)cc4Cl)[C@H]3c3ccccc3Cl)c2C#N)C(C)(C)C1 (relative stereo)
[1]
  zone of inhibition at 1000 µg/mL: 17.8 mm
[2]
  inhibition at 200 µg/mL: 94%
[3]
  zone of inhibition at 1000 µg/mL: 11.3 mm
[4]
  inhibition at 200 µg/mL: 92%
[5]
  zone of inhibition at 1000 µg/mL: 18.7 mm
[6]
  zone of inhibition at 1000 µg/mL: 13.1 mm
[7]
  inhibition at 200 µg/mL: 40%
[8]
  zone of inhibition at 1000 µg/mL: 10.6 mm

## Cc1nn(-c2ccccc2)c(Cl)c1/C=C/C1=Cc2c(sc(N3C(=O)[C@@H](Oc4ccc(Cl)cc4Cl)[C@H]3c3ccccc3)c2C#N)C(C)(C)C1 (relative stereo)
[1]
  zone of inhibition at 1000 µg/mL: 14.2 mm
[3]
  zone of inhibition at 1000 µg/mL: < 10 mm
[4]
  inhibition at 200 µg/mL: 40%
[5]
  zone of inhibition at 1000 µg/mL: 11.7 mm
[6]
  zone of inhibition at 1000 µg/mL: < 10 mm
[9]
  inhibition at 200 µg/mL: 50%
[8]
  zone of inhibition at 1000 µg/mL: 11.7 mm

## Cc1nn(-c2ccccc2)c(Cl)c1/C=C/C1=Cc2c(sc(N3C(=O)[C@@H](Oc4ccc(Cl)cc4Cl)[C@H]3c3ccc(Cl)cc3)c2C#N)C(C)(C)C1 (relative stereo)
[1]
  zone of inhibition at 1000 µg/mL: 13.9 mm
[3]
  zone of inhibition at 1000 µg/mL: 10.6 mm
[4]
  inhibition at 200 µg/mL: 35%
[5]
  zone of inhibition at 1000 µg/mL: 12.4 mm
[6]
  zone of inhibition at 1000 µg/mL: < 10 mm
[8]
  zone of inhibition at 1000 µg/mL: 11.2 mm

## Clc1ccc(COC(Cn2ccnc2)c2ccc(Cl)cc2Cl)c(Cl)c1 (stereo not given) [MICONAZOLE]
[2]
  inhibition at 200 µg/mL: 90%
[4]
  inhibition at 200 µg/mL: 100%
[7]
  inhibition at 200 µg/mL: 90%
[9]
  inhibition at 200 µg/mL: 90%

## COc1cc([C@@H]2[C@H](Oc3ccc(Cl)cc3Cl)C(=O)N2c2sc3c(c2C#N)C=C(/C=C/c2c(C)nn(-c4ccccc4)c2Cl)CC3(C)C)cc(OC)c1OC
[1]
  zone of inhibition at 1000 µg/mL: 12.9 mm
[2]
  inhibition at 200 µg/mL: 50%
[3]
  zone of inhibition at 1000 µg/mL: 10.6 mm
[5]
  zone of inhibition at 1000 µg/mL: 11.6 mm
[6]
  zone of inhibition at 1000 µg/mL: < 10 mm
[8]
  zone of inhibition at 1000 µg/mL: 11.7 mm

## Cc1nn(-c2ccccc2)c(Cl)c1/C=C/C1=Cc2c(sc(N3C(=O)[C@@H](Oc4ccc(Cl)cc4Cl)[C@H]3c3ccc(Cl)c(Cl)c3)c2C#N)C(C)(C)C1 (relative stereo)
[1]
  zone of inhibition at 1000 µg/mL: 12 mm
[3]
  zone of inhibition at 1000 µg/mL: < 10 mm
[5]
  zone of inhibition at 1000 µg/mL: 11.2 mm
[6]
  zone of inhibition at 1000 µg/mL: < 10 mm
[8]
  zone of inhibition at 1000 µg/mL: 10.8 mm

## COc1ccc([C@@H]2[C@H](Oc3ccc(Cl)cc3Cl)C(=O)N2c2sc3c(c2C#N)C=C(/C=C/c2c(C)nn(-c4ccccc4)c2Cl)CC3(C)C)cc1O (relative stereo)
[1]
  zone of inhibition at 1000 µg/mL: 13.7 mm
[3]
  zone of inhibition at 1000 µg/mL: < 10 mm
[5]
  zone of inhibition at 1000 µg/mL: < 10 mm
[6]
  zone of inhibition at 1000 µg/mL: < 10 mm
[8]
  zone of inhibition at 1000 µg/mL: < 10 mm

## Cc1nn(-c2ccccc2)c(Cl)c1/C=C/C1=Cc2c(sc(N3C(=O)[C@@H](Oc4ccc(Cl)cc4Cl)[C@H]3c3ccccc3O)c2C#N)C(C)(C)C1 (relative stereo)
[1]
  zone of inhibition at 1000 µg/mL: 17.6 mm
[2]
  inhibition at 200 µg/mL: 91%
[3]
  zone of inhibition at 1000 µg/mL: 12.3 mm
[4]
  inhibition at 200 µg/mL: 89%
[5]
  zone of inhibition at 1000 µg/mL: 18.9 mm
[6]
  zone of inhibition at 1000 µg/mL: < 10 mm
[8]
  zone of inhibition at 1000 µg/mL: 11.6 mm

## COc1ccc([C@@H]2[C@H](Oc3ccc(Cl)cc3Cl)C(=O)N2c2sc3c(c2C#N)C=C(/C=C/c2c(C)nn(-c4ccccc4)c2Cl)CC3(C)C)cc1 (relative stereo)
[1]
  zone of inhibition at 1000 µg/mL: 15.6 mm
[2]
  inhibition at 200 µg/mL: 30%
[3]
  zone of inhibition at 1000 µg/mL: 11.3 mm
[5]
  zone of inhibition at 1000 µg/mL: 12.5 mm
[6]
  zone of inhibition at 1000 µg/mL: < 10 mm
[7]
  inhibition at 200 µg/mL: 25%
[8]
  zone of inhibition at 1000 µg/mL: 11.9 mm

## O=C(N[C@H](CO)[C@H](O)c1ccc([N+](=O)[O-])cc1)C(Cl)Cl [CHLORAMPHENICOL]
[1]
  zone of inhibition at 1000 µg/mL: 17 mm
[3]
  zone of inhibition at 1000 µg/mL: 16.4 mm
[5]
  zone of inhibition at 1000 µg/mL: 18.8 mm
[6]
  zone of inhibition at 1000 µg/mL: 17.2 mm
[8]
  zone of inhibition at 1000 µg/mL: 19.6 mm

## Cc1nn(-c2ccccc2)c(Cl)c1/C=C/C1=Cc2c(sc(N3C(=O)[C@@H](Oc4ccc(Cl)cc4Cl)[C@H]3c3ccc([N+](=O)[O-])cc3)c2C#N)C(C)(C)C1 (relative stereo)
[1]
  zone of inhibition at 1000 µg/mL: 14 mm
[3]
  zone of inhibition at 1000 µg/mL: < 10 mm
[5]
  zone of inhibition at 1000 µg/mL: 11.2 mm
[6]
  zone of inhibition at 1000 µg/mL: < 10 mm
[8]
  zone of inhibition at 1000 µg/mL: 12.1 mm

## Cc1nn(-c2ccccc2)c(Cl)c1/C=C/C1=Cc2c(sc(N3C(=O)[C@@H](Oc4ccc(Cl)cc4Cl)[C@H]3c3ccc(N(C)C)cc3)c2C#N)C(C)(C)C1 (relative stereo)
[1]
  zone of inhibition at 1000 µg/mL: 14.6 mm
[3]
  zone of inhibition at 1000 µg/mL: < 10 mm
[5]
  zone of inhibition at 1000 µg/mL: < 10 mm
[6]
  zone of inhibition at 1000 µg/mL: < 10 mm
[8]
  zone of inhibition at 1000 µg/mL: < 10 mm

## C=CC1=C(C(=O)O)N2C(=O)[C@@H](NC(=O)/C(=N\OCC(=O)O)c3csc(N)n3)[C@H]2SC1 [CEFIXIME]
[1]
  zone of inhibition at 1000 µg/mL: 30 mm
[3]
  zone of inhibition at 1000 µg/mL: 36.1 mm
[5]
  zone of inhibition at 1000 µg/mL: 28.7 mm
[6]
  zone of inhibition at 1000 µg/mL: 34.1 mm
[8]
  zone of inhibition at 1000 µg/mL: 17.8 mm
